Results on nine molecules are retold here after patent US9586914B2, “Modulators of C3a receptors” (THE UNIVERSITY OF QUEENSLAND, priority 2011, dated 2017).

The structures appear in SMILES notation. Where two headings read alike, the source gives them in different places.

Assay [1] deals with T1, C3aR (Homo sapiens, UniProt Q16581).
T1 construct: peripheral blood mononuclear cells were isolated from buffy coat (obtained from Australian Red Cross Blood Service, Kelvin Grove); endogenous in cells; host or cells: primary human monocyte-derived macrophages (HMDM) differentiated from CD14+ monocytes of donor buffy coat
T1 sequence (Q16581 1-482): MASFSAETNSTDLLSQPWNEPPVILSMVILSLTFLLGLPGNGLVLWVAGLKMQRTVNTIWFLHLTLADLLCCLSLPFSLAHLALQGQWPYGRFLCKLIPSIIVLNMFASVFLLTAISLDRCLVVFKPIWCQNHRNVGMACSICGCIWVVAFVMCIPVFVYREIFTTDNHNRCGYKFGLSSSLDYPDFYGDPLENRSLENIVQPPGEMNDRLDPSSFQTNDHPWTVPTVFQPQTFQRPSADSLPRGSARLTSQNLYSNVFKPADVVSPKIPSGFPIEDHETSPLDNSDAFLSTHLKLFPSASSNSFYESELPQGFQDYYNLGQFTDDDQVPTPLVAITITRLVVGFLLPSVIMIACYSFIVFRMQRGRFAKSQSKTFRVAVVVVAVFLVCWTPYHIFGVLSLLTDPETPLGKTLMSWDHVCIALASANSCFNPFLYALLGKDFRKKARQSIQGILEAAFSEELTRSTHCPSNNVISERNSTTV
Nature of the assay: Calcium mobilization assay in HMDM (agonist/antagonist activity). Format: cell-based. Conditions: for Emax at 10 µM: read-out: % agonist. A digest of the protocol:
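Human monocyte-derived macrophages, 5×10^4 cells/well, loaded 1 h at 37 °C with 4 μM Fluo-3 in HBSS/HEPES/probenecid buffer, pH 7.4. Agonist mode: calcium release read 300 s; antagonist mode: 900 s compound preincubation then agonist, read 300 s (ex 485/em 520 nm); compared with hC3a.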

The target in assay [2] is T1, C3aR. In words: Desensitization experiments (Ca^2+ efflux after hC3a desensitization). The assay is classed as cell-based. The settings on record: hC3a 3 μM first; second addition of 1 μM compound; HMDM. As for the experimental part: Desensitization experiments were used to measure the selectivity of various ligands for C3aR, since this can help to clarify whether the non-peptidic ligands bind selectively to C3aR over other GPCRs that signal through intracellular calcium release.
The hC3a (3 μM) was administered to human monocyte derived macrophage cells, which produces an efflux of intracellular Ca^2+ that dissipates after 4-5 mins (FIGS. 4A and 4B). A second addition of 3 μM hC3a after 5 mins has no effect, due to desensitization of the receptor through either receptor (C3a receptor) phosphorylation or receptor internalization from the cell surface.

The target of assay [3] is T2, C3a receptor (C3aR) (Homo sapiens, UniProt Q16581).
T2 construct: peripheral blood mononuclear cells were isolated from buffy coat (obtained from Australian Red Cross Blood Service, Kelvin Grove); endogenous in cells; host or cells: primary human monocyte-derived macrophages (HMDM) differentiated from CD14+ monocytes of donor buffy coat
T2 sequence (Q16581 1-482): T1 sequence (Q16581 1-482)
In words: Competitive binding with [^125I]-C3a in HMDM. Conditions: for remaining activity at 20 µM: 1 h, read-out: %[^125I]-C3a binding. Summed up:
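IC50 values are geometric means, with −log IC50 computed per experiment and given as arithmetic mean ± SE. Cells were CD14+ monocytes from buffy-coat PBMC, differentiated to macrophages and used on day 7. Unbound label was removed by GF/B filtration with 3 cold washes in 50 mM Tris-HCl pH 7.4.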

[4] abbreviates: Table 9, Ca^2+ mobilization, HMDM, read-out: EC50.
[5] abbreviates: Table 6, competitive binding with [^125I]-C3a, HMDM, read-out: IC50 (converted).
The mark [6] stands for this setting: Table 10, HMDM, read-out: Antagonist Activity Ca^2+ IC50.
The mark [7] stands for this setting: Table 8, HMDM, read-out: Receptor Binding Affinity ^125I IC50.
[8] abbreviates: Table 13, calcium release from HMDM, read-out: Antagonist Activity IC50.

Turning to `CC[C@H](C)[C@H](NC(=O)c1ccccc1Oc1ccccc1)c1nc(C(=O)N[C@@H](CCCNC(=N)N)C(=O)O)co1` [Compound 18, 2-phenoxy benzoic acid-isoleucine-oxazole-arginine-OH], the “pEC50 ± SEM” value in assay [1] (Table 9, Ca^2+ mobilization, HMDM) is recorded as 7.26 ± 0.08. For the same molecule, the EC50 in assay [1] (setting [4]) stood at 54 nM. Besides, in assay [2], the “Ca^2+ efflux on addition after first desensitization with hC3a (selectivity for C3aR over other GPCRs)” value is “caused a second efflux of intracellular Ca^2+”. Also, the “pIC50 ± SEM” value in assay [3] (Table 6, competitive binding with [^125I]-C3a, HMDM) is 7.26 ± 0.09. Moreover, in assay [3] (setting [5]), the IC50 is 55 nM.
On to `CC[C@H](C)[C@H](NC(=O)c1nccc2ccccc12)c1nc(C(=O)N[C@@H](CCCNC(=N)N)C(=O)O)co1` [Compound 10, Isoquinoline-1-Isoleucine-Oxazole-Arginine-OH], for which, in assay [1] (Table 9, Ca^2+ mobilization, HMDM, read-out: pEC50 ± SEM (converted)), the EC50 is 40.7 nM. Moreover, the “Ca^2+ efflux on addition after first desensitization with hC3a (selectivity for C3aR over other GPCRs)” value in assay [2] is on record as “did not produce calcium efflux”. Also, the IC50 in assay [3] (setting [5]) was 123 nM.
For `N=C(N)NCCC[C@H](NC(=O)c1ccc(C(c2ccccc2)c2ccccc2)s1)C(=O)O` [Compound 60, 5-Diphenylmethyl-thiophene-2-carboxyl-Arg-OH], in assay [1] (Table 10, HMDM, read-out: Agonist Activity EC50), the EC50 was over 100000 nM. The IC50 in assay [1] (setting [6]) was 70 nM; in assay [3] (setting [7]), 140 nM; in assay [3] (Table 14, binding affinity for C3aR on HMDM, read-out: -Log IC50 (converted)), 63.1 nM.
In the case of `N#CN=C(N)NCCC[C@H](NC(=O)c1ccc(C(c2ccccc2)c2ccccc2)s1)C(=O)NS(=O)(=O)c1ccccc1` [Compound 96, (S)-5-benzhydryl-N-(5-(2-cyanoguanidino)-1-oxo-1-(phenylsulfonamido)pentan-2-yl)thiophene-2-carboxamide], the IC50 in assay [1] (setting [8]) was 2000 nM; in assay [3] (setting [5]), 888 nM.
`Cc1oc([C@H](CC(C)C)NC(=O)c2cncc(Br)c2)nc1C(=O)N[C@@H](CCCNC(=N)N)C(=O)O` [Compound 48, 5-Bromonicotinic acid-Leucine-5-Methyl-Oxazole-Arginine]: the Emax at 10 µM in assay [1] came out at 68%. Besides, the remaining activity at 20 µM in assay [3] was determined as 32%.
Taken in the same sequence, the figures for `Cc1oc([C@H](CC(C)C)NC(=O)Cc2ccc(/N=N/c3ccccc3)cc2)nc1C(=O)N[C@@H](CCCNC(=N)N)C(=O)O` [Compound 47, Phenyl hydrazine-Benzeneacetic acid-Leucine-5-Methyl-Oxazole-Arginine] were 48% and 49%.
With `N=C(N)NCCC[C@H](NC(=O)c1coc(C(c2ccccc2)c2ccccc2)n1)C(=O)O` [Compound 56, 2-Diphenylmethyl-oxazole-4-carboxyl-Arg-OH], the EC50 in assay [1] (setting [4]) was 6.6 nM; in assay [1] (Table 12, read-out: Apparent Agonist Activity EC50), 6.6 nM. The “Agonist Activity (in words)” value in assay [1] (Table 10, HMDM) was “partial agonist”. Besides, the IC50 in assay [1] (setting [6]) was 20 nM; in assay [3] (setting [5]) it was 37 nM; in assay [3] (Table 6, competitive binding with [^125I]-C3a, HMDM, read-out: pIC50 ± SEM (converted)), 37.2 nM; in assay [3] (setting [7]), 1 nM; in assay [3] (Table 12, read-out: Receptor Binding Affinity pIC50 ± SE (converted)), 37.2 nM.
For the molecule `CC(C)C[C@H](NC(=O)CC(c1ccccc1)c1ccccc1)c1nc(C(=O)N[C@@H](CCCNC(=N)N)C(=O)O)co1` [Compound 19, 3,3-diphenylpropanoic acid-Leucine-Oxazole-Arginine-OH], in assay [1] (setting [4]), the EC50 came to 744 nM. Besides, the IC50 in assay [3] (setting [5]) was 754 nM.
As to `N=C(N)NCCC[C@H](NC(=O)c1ccc(C(c2ccccc2)c2ccccc2)s1)C(=O)NS(=O)(=O)c1ccccc1` [Compound 94, (S)-5-benzhydryl-N-(5-guanidino-1-oxo-1-(phenylsulfonamido)pentan-2-yl)thiophene-2-carboxamide], the IC50 was 300 nM in assay [1] (setting [8]) and 35 nM in assay [3] (setting [5]).
